Results taken from PMC3310374 (Bioconjugate Chemistry, 2012).

Test system: PC-3 cells
Experiment: Flow cytometric analysis of hypoxic cell induction
Format: cell-based, human
Conditions: for Mean fluorescence (FITC antibody against pimonidazole adducts): 10 μM pimonidazole, 2 h

In the case of `O=[N+]([O-])c1nccn1CC(O)CN1CCCCC1` (stereo not drawn) [pimonidazole], the “Increase in pimonidazole binding, hypoxic compared to normoxic” value (PC-3 cells, flow cytometry) is reported as “fivefold increase”, the “Mean fluorescence (FITC antibody against pimonidazole adducts)” value (hypoxic PC-3 cells (94.9% N2, 0.1% O2, 5% CO2)) is reported as 286 and the “Mean fluorescence (FITC antibody against pimonidazole adducts)” value (normoxic PC-3 cells (95% air, 5% CO2)) is reported as 56.8.
